How the values were obtained:
HT-29 = assay: Cytotoxicity against human HT29 cells assessed as reduction in cell viability incubated for 72 hrs by MTT assay; settings: HT-29, 72 h
MCF7 = assay: Cytotoxicity against human MCF7 cells assessed as reduction in cell viability incubated for 72 hrs by MTT assay; assay type: functional, cell-based; settings: MCF7, 72 h
MRC5 = assay: Cytotoxicity against human MRC5 cells assessed as reduction in cell viability incubated for 72 hrs by MTT assay; settings: MRC5, 72 h
[1] = Selectivity index, ratio of IC50 for human MRC5 cells to IC50 for human A2780 cells; assay type: toxicity; settings: MRC5 cells versus A2780 cells, read-out: Ratio IC50
A2780 = assay: Cytotoxicity against human A2780 cells assessed as reduction in cell viability incubated for 72 hrs by MTT assay; settings: A2780, 72 h
[2] = Selectivity index, ratio of IC50 for human MRC5 cells to IC50 for human HT29 cells; assay type: toxicity; settings: MRC5 cells versus HT29 cells, read-out: Ratio IC50
[3] = Selectivity index, ratio of IC50 for human MRC5 cells to IC50 for human MCF7 cells; assay type: toxicity; settings: MRC5 cells versus MCF7 cells, read-out: Ratio IC50
NCI/ADR-RES [4] = assay: Synergistic cytotoxicity against human MCF7/ADR cells assessed as combination index at 0.5 uM after 72 hrs in presence of 0.25 uM doxorubicin by MTT assay; assay type: functional
NCI/ADR-RES [5] = assay: Synergistic cytotoxicity against human MCF7/ADR cells assessed as combination index at 1 uM after 72 hrs in presence of 0.5 uM doxorubicin by MTT assay; assay type: functional
NCI/ADR-RES [6] = assay: Synergistic cytotoxicity against human MCF7/ADR cells assessed as combination index at 1 uM after 72 hrs in presence of 0.25 uM doxorubicin by MTT assay; assay type: functional
NCI/ADR-RES [7] = assay: Synergistic cytotoxicity against human MCF7/ADR cells assessed as combination index at 0.5 uM after 72 hrs in presence of 1 uM doxorubicin by MTT assay; assay type: functional
NCI/ADR-RES [8] = assay: Synergistic cytotoxicity against human MCF7/ADR cells assessed as combination index at 0.25 uM after 72 hrs in presence of 0.5 uM doxorubicin by MTT assay; assay type: functional
NCI/ADR-RES [9] = assay: Synergistic cytotoxicity against human MCF7/ADR cells assessed as combination index at 0.5 uM after 72 hrs in presence of 0.5 uM doxorubicin by MTT assay; assay type: functional
NCI/ADR-RES [10] = assay: Synergistic cytotoxicity against human MCF7/ADR cells assessed as combination index at 0.25 uM after 72 hrs in presence of 1 uM doxorubicin by MTT assay; assay type: functional
NCI/ADR-RES [11] = assay: Cytotoxicity against human MCF7/ADR cells assessed as reduction in cell viability incubated for 72 hrs in presence of doxorubicin by MTT assay; assay type: functional, cell-based
NCI/ADR-RES [12] = assay: Cytotoxicity against human MCF7/ADR cells assessed as reduction in cell viability incubated for 72 hrs by MTT assay
[13] = Reversal of multidrug resistant activity in human MCF7/ADR cells assessed as reversal fold after 72 hrs by MTT assay; assay type: functional, NCI/ADR-RES
NCI/ADR-RES [14] = assay: Synergistic cytotoxicity against human MCF7/ADR cells assessed as combination index at 0.25 uM after 72 hrs in presence of 0.25 uM doxorubicin by MTT assay; assay type: functional
NCI/ADR-RES [15] = assay: Synergistic cytotoxicity against human MCF7/ADR cells assessed as combination index at 1 uM after 72 hrs in presence of 1 uM doxorubicin by MTT assay; assay type: functional
P-gp (ABCB1) [16] = biological target: T1, P-gp (ABCB1) (Homo sapiens, UniProt P08183); assay: Inhibition of P-gp activity in human MCF7/ADR cells at 1000 nM after 72 hrs by RT-PCR analysis relative to control; assay type: cell-based, NCI/ADR-RES; settings: MCF7/ADR cells
P-gp (ABCB1) [17] = biological target: T1, P-gp (ABCB1); assay: Inhibition of P-gp activity in human MCF7/ADR cells at 250 nM after 72 hrs by RT-PCR analysis relative to control; assay type: cell-based, NCI/ADR-RES; settings: MCF7/ADR cells
[18] = biological target: ATP-dependent translocase ABCB1 (Homo sapiens, UniProt P08183); assay: Inhibition of P-gp activity in human MCF7/ADR cells after 72 hrs by RT-PCR analysis; assay type: cell-based; settings: nci/adr-res, at 125 to 1000 nM, dose 125-1000 nM
P-gp (ABCB1) [19] = biological target: T1, P-gp (ABCB1); assay: Inhibition of P-gp activity in human MCF7/ADR cells at 500 nM after 72 hrs by RT-PCR analysis relative to control; assay type: cell-based, NCI/ADR-RES; settings: MCF7/ADR cells
P-gp (ABCB1) [20] = biological target: T1, P-gp (ABCB1); assay: Inhibition of P-gp activity in human MCF7/ADR cells at 125 nM after 72 hrs by RT-PCR analysis relative to control; assay type: cell-based, NCI/ADR-RES

T1 sequence (P08183 whole entry): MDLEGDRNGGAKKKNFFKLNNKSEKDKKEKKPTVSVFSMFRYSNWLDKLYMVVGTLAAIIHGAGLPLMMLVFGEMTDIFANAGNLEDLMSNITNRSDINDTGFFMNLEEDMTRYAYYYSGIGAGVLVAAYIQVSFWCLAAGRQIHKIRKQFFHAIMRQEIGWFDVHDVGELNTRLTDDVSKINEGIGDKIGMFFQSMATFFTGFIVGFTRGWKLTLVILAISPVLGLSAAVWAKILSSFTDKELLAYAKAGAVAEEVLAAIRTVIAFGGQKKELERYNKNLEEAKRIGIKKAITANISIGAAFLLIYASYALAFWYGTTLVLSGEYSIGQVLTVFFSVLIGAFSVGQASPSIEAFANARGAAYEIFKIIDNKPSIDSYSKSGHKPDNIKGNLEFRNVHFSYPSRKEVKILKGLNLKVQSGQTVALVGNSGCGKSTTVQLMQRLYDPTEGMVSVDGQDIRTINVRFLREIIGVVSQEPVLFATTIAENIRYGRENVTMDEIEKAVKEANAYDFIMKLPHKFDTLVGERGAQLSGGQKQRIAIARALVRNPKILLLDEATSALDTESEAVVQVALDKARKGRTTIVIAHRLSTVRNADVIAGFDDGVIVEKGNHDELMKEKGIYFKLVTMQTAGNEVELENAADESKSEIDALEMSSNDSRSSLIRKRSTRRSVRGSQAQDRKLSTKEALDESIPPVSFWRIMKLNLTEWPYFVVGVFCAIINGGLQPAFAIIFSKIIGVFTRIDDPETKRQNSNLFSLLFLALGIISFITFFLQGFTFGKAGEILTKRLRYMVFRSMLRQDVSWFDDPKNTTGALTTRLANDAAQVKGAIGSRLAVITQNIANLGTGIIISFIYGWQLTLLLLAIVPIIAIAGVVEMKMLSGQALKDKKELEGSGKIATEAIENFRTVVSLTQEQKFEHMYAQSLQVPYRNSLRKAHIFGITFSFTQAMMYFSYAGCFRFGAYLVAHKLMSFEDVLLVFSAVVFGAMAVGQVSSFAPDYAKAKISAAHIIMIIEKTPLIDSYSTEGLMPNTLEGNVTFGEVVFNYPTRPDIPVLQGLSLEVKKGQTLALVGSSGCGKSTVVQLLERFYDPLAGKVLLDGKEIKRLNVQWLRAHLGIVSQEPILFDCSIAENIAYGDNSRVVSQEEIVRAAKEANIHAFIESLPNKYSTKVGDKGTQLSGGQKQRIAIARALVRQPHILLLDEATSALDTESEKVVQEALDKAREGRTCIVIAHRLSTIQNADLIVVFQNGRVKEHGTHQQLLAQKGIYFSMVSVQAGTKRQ
Sequence of ATP-dependent translocase ABCB1 (P08183 whole entry): as above

Compound | IC50 (HT-29) [nM] | IC50 (MCF7) [nM] | IC50 (MRC5) [nM] | selectivity ratio [1] | IC50 (A2780) [nM] | selectivity ratio [2] | selectivity ratio [3] | also measured
Cc1nc2c(C#N)c3n(c2c(=O)n1-c1ccc(Cl)cc1)CCCC3 | 10500 | 10800 | 1540 | 2.44 | 630 | 0.15 | 0.14 | –
COc1ccc(-n2c(C)nc3c(C#N)c4n(c3c2=O)CCC4)cc1 | 160 | 80 | 17300 | 247 | 70 | 108 | 216 | CI (NCI/ADR-RES [4]): 37.214; CI (NCI/ADR-RES [5]): 5.646; CI (NCI/ADR-RES [6]): >100; CI (NCI/ADR-RES [7]): 0.2; CI (NCI/ADR-RES [8]): 11.363; CI (NCI/ADR-RES [9]): 2.952; CI (NCI/ADR-RES [10]): 0.19; IC50 (NCI/ADR-RES [11]): 7580 nM; IC50 (NCI/ADR-RES [12]): 30500 nM; fold change (FC) [13]: 2.4; CI (NCI/ADR-RES [14]): >100; CI (NCI/ADR-RES [15]): 0.3
N#Cc1c2n(c3c(=O)n(-c4ccc(Cl)cc4)cnc13)CCCC2 | 420 | 250 | 300 | 4.29 | 70 | 0.71 | 1.2 | CI (NCI/ADR-RES [4]): >100; CI (NCI/ADR-RES [5]): >100; CI (NCI/ADR-RES [6]): >100; CI (NCI/ADR-RES [7]): 0.9; CI (NCI/ADR-RES [8]): >100; CI (NCI/ADR-RES [9]): >100; CI (NCI/ADR-RES [10]): 0.19; IC50 (NCI/ADR-RES [11]): 6330 nM; IC50 (NCI/ADR-RES [12]): 37300 nM; fold change (FC) [13]: 2.88; CI (NCI/ADR-RES [14]): >100; CI (NCI/ADR-RES [15]): 0.21
N#Cc1c2n(c3c(=O)n(-c4ccc(F)cc4)c(=O)[nH]c13)CCC2 | 4380 | 880 | 240 | 0.33 | 730 | 0.05 | 0.27 | –
COc1ccc(N2CC(=O)Nc3c(C#N)c4n(c3C2=O)CCC4)cc1 | 200 | 2830 | 9570 | 1.52 | 6280 | 47.9 | 3.38 | –
COc1ccc(-n2cnc3c(C#N)c4n(c3c2=O)CCC4)cc1 | 11000 | 2610 | 20600 | 15.1 | 1360 | 1.88 | 7.88 | –
N#Cc1c2c(n3c1CCC3)C(=O)N(c1ccc(F)cc1)CC(=O)N2 | 9710 | 190 | 1460 | 1.51 | 970 | 0.15 | 7.68 | –
Cc1nc2c(C#N)c3n(c2c(=O)n1-c1ccccc1)CCCC3 | 880 | 1790 | 7580 | 152 | 50 | 8.61 | 4.23 | –
COc1ccc(-n2c(=O)[nH]c3c(C#N)c4n(c3c2=O)CCC4)cc1 | 420 | 19600 | 13800 | 0.88 | 15600 | 33 | 0.71 | –
Cc1nc2c(C#N)c3n(c2c(=O)n1-c1ccc(F)cc1)CCC3 | 780 | 170 | 2780 | 18.5 | 150 | 3.56 | 16.4 | CI (NCI/ADR-RES [4]): >100; CI (NCI/ADR-RES [5]): 9.602; CI (NCI/ADR-RES [6]): >100; CI (NCI/ADR-RES [7]): 0.2; CI (NCI/ADR-RES [8]): >100; CI (NCI/ADR-RES [9]): >100; CI (NCI/ADR-RES [10]): 0.89; IC50 (NCI/ADR-RES [11]): 6120 nM; IC50 (NCI/ADR-RES [12]): 46900 nM; fold change (FC) [13]: 2.98; CI (NCI/ADR-RES [14]): >100; CI (NCI/ADR-RES [15]): 0.1
Cc1nc2c(C#N)c3n(c2c(=O)n1-c1ccc(Br)cc1)CCCC3 | 10800 | 1650 | 3710 | 23.2 | 160 | 0.35 | 2.25 | –
COc1ccc(NC(=O)c2c3nc[nH]c(=O)c3c3n2CCC3)cc1 | 140 | 1430 | 1530 | 0.1 | 15600 | 10.9 | 1.07 | –
O=C(Nc1ccc(F)cc1)c1c2nc[nH]c(=O)c2c2n1CCC2 | 1020 | 740 | 170 | 0.29 | 580 | 0.17 | 0.23 | –
N#Cc1c2n(c3c(=O)n(-c4ccc(Br)cc4)cnc13)CCCC2 | 14200 | 270 | 15800 | 792 | 20 | 1.12 | 58.6 | CI (NCI/ADR-RES [4]): >100; CI (NCI/ADR-RES [5]): 1.53; CI (NCI/ADR-RES [6]): >100; CI (NCI/ADR-RES [7]): 0.91; CI (NCI/ADR-RES [8]): >100; CI (NCI/ADR-RES [9]): 1.141; CI (NCI/ADR-RES [10]): 0.2; IC50 (NCI/ADR-RES [11]): 3070 nM; inhibition at 72 h, 1 µM (P-gp (ABCB1) [16]): 90%; inhibition at 72 h, 0.25 µM (P-gp (ABCB1) [17]): 63%; inhibition (INH) [18]: Dose-Dependent Effect; IC50 (NCI/ADR-RES [12]): 20200 nM; fold change (FC) [13]: 5.93; CI (NCI/ADR-RES [14]): >100; inhibition at 72 h, 0.5 µM (P-gp (ABCB1) [19]): 87%; CI (NCI/ADR-RES [15]): 0.1; inhibition at 72 h, 0.125 µM (P-gp (ABCB1) [20]): 5%

— ChEMBL document CHEMBL4819064, “Discovery of new pyrimidopyrrolizine/indolizine-based derivatives as P-glycoprotein inhibitors: Design, synthesis, cytotoxicity, and MDR reversal activities” (Eur J Med Chem, 2021)
